Laboratory results from patent US10349662B2, “Insecticidal compositions and methods of using the same” (priority 2011, dated 2019).
Where “and” joins values, the source holds several entries; their conditions need not be identical. Equal values may be shown once. Read-outs that look alike come from different tables or passages of the source.

Tested on: Aedes aegypti mosquitoes
Experiment: Topical bioassay on adult female Aedes aegypti mosquitoes (knockdown 1 h, mortality 24 h; Colby calculation for combinations)
Type: in vivo
Settings: for mortality at 0.0005 µg/mosquito: read-out: % MORTALITY AFTER 24 HRS, 0.0005 μg/mosquito
Source text: Components of a composition can have a synergistic or additive effect on insecticidal activity. Components have an additive effect when the effect of the combination is equal to the sum of the effects of each individual component. In contrast, components have a synergistic effect when the effect of the combination exceeds the sum of the effects of the components when applied individually. The effect (E) of a combination of two compounds may be calculated using the Colby formula (1) (S. R. Colby, “Calculating Synergistic and Antagonistic Responses of Herbicide Combinations”, Weeds 1967, 15, 20-22):
If the actual insecticidal kill rate is the calculated value (E), then the action of the combination is additive. If the actual insecticidal kill rate exceeds the calculated value (E), then the action of the combination is super-additive, that is, a synergistic effect is present. If the insecticidal kill rate is lower than the calculated value (E), then the action of the combination is considered antagonistic.
Adult female Aedes aegypti mosquitoes were segregated in 18″×18″ screen cages based on date of eclosion, therefore the exact age of the mosquitoes were known for bioassays.
Ten female mosquitoes, aged four to six days after eclosion, were aspirated out of their respective cage and into a small glass jar. The mosquitoes were then anesthetized with CO2 gas for 30 seconds. After the adults were anesthetized, they were quickly placed on a plastic platform for treatment application. Treatments were serially diluted (using a BrandTech Scientific Transferpette S pipette (100-1000 μL), labeled centrifuge tubes, and a vortex mixer) from stocks of insecticides using reagent grade acetone as the diluent to concentrations as indicated for each treatment solution. A treatment solution may contain additional ingredients as indicated for each study.
Using a Hamilton PB00-1 Repeating Dispenser with a Hamilton 25 Microliter Syringe, 0.5 μL of each treatment solution was applied to the thorax of each mosquito. Immediately following the application of the treatment, the mosquitoes were gently transferred into a clean paper cup and covered with screen. The mesh screen prevented the mosquitoes from escaping and allowed the specimens to be viewed for ratings. A cotton ball soaked with 10% sucrose solution was inserted into a side hole of each cup for hydration and nourishment. Each treatment variable in the study was replicated three times using separate cups for each replication.
The untreated controls treatments were anesthetized for 30 seconds and gently transferred to the paper cups. The acetone treated control was treated exactly as described above except that the solution applied to each mosquito was undiluted acetone.
The condition of the mosquitoes in each cup was recorded at one hour and 24 hours after initial treatment. The condition classifications used were (1) alive and flying, (2) alive and unable to fly, or (3) dead. The percent mortality for each treatment was calculated by summing the mortalities of each replicate then calculating the percent dead from the total number of mosquitoes.
Where indicated, the mortality data were subjected to probit analysis using the Statistical Analysis System Version 9.1 program PROC PROBIT (SAS Institute (2003) PROC user's manual, version 9.1. SAS Institute, Cary, N.C.).

[1] = Aedes aegypti, topical, 24 h, read-out: % MORTALITY AFTER 24 HRS, 0.005 μg
[2] = Aedes aegypti, topical, 24 h, read-out: % MORTALITY AFTER 24 HRS, single active, 0.01 μg
[3] = Aedes aegypti, topical, 24 h, read-out: % MORTALITY AFTER 24 HRS, active ingredient alone, 3%, adult, virgin, female Aedes aegypti
[4] = Aedes aegypti, topical, 24 h, read-out: % MORTALITY AFTER 24 HRS, insecticide alone, 0.0003 μg, adult, virgin, female Aedes aegypti

C=C(C)[C@@H]1CC=C(CO)CC1 [(S)-(−)-Perillyl alcohol]
% MORTALITY AFTER 24 HRS (1%): 0%
% MORTALITY AFTER 24 HRS (2%, listed as (S)-(−)-perillyl alcohol): 70%
% MORTALITY AFTER 24 HRS (2%, listed as (S)-Perillyl alcohol): 33%
% MORTALITY AFTER 24 HRS (single active, 2%): 80% and 67%

CN/C(=N\[N+](=O)[O-])NCc1cnc(Cl)s1 [Clothianidin, clothianidin, reference compound]
mortality at 5 ng [1]: 7%
mortality at 10 ng (Aedes aegypti, topical, 24 h, read-out: % MORTALITY AFTER 24 HRS, 0.01 μg): 50%
mortality at 25 ng (Aedes aegypti, topical, 24 h, read-out: % MORTALITY AFTER 24 HRS, 0.025 μg): 40%
mortality at 10 ng [2]: 47%
mortality at 15 ng (Aedes aegypti, topical, 24 h, read-out: % MORTALITY AFTER 24 HRS, single active, 0.015 μg): 0%
mortality at 20 ng (Aedes aegypti, topical, 24 h, read-out: % MORTALITY AFTER 24 HRS, single active, 0.02 μg): 43%

CCOc1ccc(C(C)(C)COCc2cccc(Oc3ccccc3)c2)cc1 [Etofenprox, etofenprox, reference compound]
1 hour knockdown (0.001 μg/mosquito): 73%
1 hour knockdown (0.002 μg/mosquito): 83%
mortality at 0.0005 µg/mosquito (Aedes aegypti, topical, 24 h): 97%
mortality at 0.001 µg/mosquito (Aedes aegypti, topical, 24 h, read-out: % MORTALITY AFTER 24 HRS, 0.001 μg/mosquito): 40%
mortality at 0.002 µg/mosquito (Aedes aegypti, topical, 24 h, read-out: % MORTALITY AFTER 24 HRS, 0.002 μg/mosquito): 53%
mortality at 1 ng (Aedes aegypti, topical, 24 h, read-out: % MORTALITY AFTER 24 HRS, single active, 0.001 μg): 40%
mortality at 2 ng (Aedes aegypti, topical, 24 h, read-out: % MORTALITY AFTER 24 HRS, single active, 0.002 μg): 37%

C=CC(C)=CCC=C(C)CCC=C(C)C [Farnesene]
1 hour knockdown (1%): 0%
% MORTALITY AFTER 24 HRS (1%): 3%
1 hour knockdown (3%): 3% and 0% and 7%
% MORTALITY AFTER 24 HRS (3%): 3%
1 hour knockdown (5%): 0%
% MORTALITY AFTER 24 HRS (5%): 13%
1 hour knockdown (10%): 87%
% MORTALITY AFTER 24 HRS (10%): 70%
1 hour knockdown (20%): 100%
% MORTALITY AFTER 24 HRS (20%): 100%
% MORTALITY AFTER 24 HRS (single active, 3%): 7%

O=[N+]([O-])NC1=NCCN1Cc1ccc(Cl)nc1 [Imidacloprid, imidacloprid, reference compound]
mortality at 5 ng [1]: 60%
mortality at 2.5 ng (Aedes aegypti, topical, 24 h, read-out: % MORTALITY AFTER 24 HRS, single active, 0.0025 μg): 83%
mortality at 3 ng (Aedes aegypti, topical, 24 h, read-out: % MORTALITY AFTER 24 HRS, single active, 0.003 μg): 23%
mortality at 5 ng (Aedes aegypti, topical, 24 h, read-out: % MORTALITY AFTER 24 HRS, single active, 0.005 μg): 30%

CC1=CC(=O)CC(C)(C)C1 [Isophorone, isophorone]
mortality at 3 % [3]: 57%

C=C(C)[C@H]1CC=C(C)CC1 [Limonene]
% MORTALITY AFTER 24 HRS (5%): 27%

CC/C=C\C/C=C\C/C=C\CCCCCCCC(=O)O [Linolenic acid]
1 hour knockdown (1%): 0%
1 hour knockdown (5%): 27%
1 hour knockdown (10%): 40%
1 hour knockdown (20%): 93%
mortality at 1 % (Aedes aegypti, topical, 24 h, read-out: % MORTALITY AFTER 24 HRS, 1%): 3%
mortality at 5 % (Aedes aegypti, topical, 24 h, read-out: % MORTALITY AFTER 24 HRS, 5%): 33%
mortality at 10 % (Aedes aegypti, topical, 24 h, read-out: % MORTALITY AFTER 24 HRS, 10%): 83%
mortality at 20 % (Aedes aegypti, topical, 24 h, read-out: % MORTALITY AFTER 24 HRS, 20%): 93%
mortality at 3 % (Aedes aegypti, topical, 24 h, read-out: % MORTALITY AFTER 24 HRS, single active, 3%): 10%

CC1(C)C(C=C(Cl)Cl)C1C(=O)OCc1cccc(Oc2ccccc2)c1 (centres unmarked) [Permethrin, permethrin, reference compound]
1 hour knockdown (0.0004 μg/mosquito): 93%
mortality at 300 pg (Aedes aegypti, topical, 24 h, read-out: % MORTALITY AFTER 24 HRS, 0.0003 μg): 27%
mortality at 0.0004 µg/mosquito (Aedes aegypti, topical, 24 h, read-out: % MORTALITY AFTER 24 HRS, 0.0004 μg/mosquito): 70%
mortality at 300 pg (Aedes aegypti, topical, 24 h, read-out: % MORTALITY AFTER 24 HRS, single active, 0.0003 μg): 37%
mortality at 400 pg (Aedes aegypti, topical, 24 h, read-out: % MORTALITY AFTER 24 HRS, single active, 0.0004 μg): 47%

C#CCC1=C(C)C(OC(=O)C2C(C=C(C)C)C2(C)C)CC1=O (centres unmarked) [Prallethrin, prallethrin, reference compound]
mortality at 750 pg (Aedes aegypti, topical, 24 h, read-out: % MORTALITY AFTER 24 HRS, 0.00075 μg): 37%
mortality at 300 pg [4]: 7%
mortality at 400 pg (Aedes aegypti, topical, 24 h, read-out: % MORTALITY AFTER 24 HRS, insecticide alone, 0.0004 μg, adult, virgin, female Aedes aegypti): 40%
mortality at 750 pg (Aedes aegypti, topical, 24 h, read-out: % MORTALITY AFTER 24 HRS, single active, 0.00075 μg): 20%

CC(C)=CC1C(C(=O)OCc2cccc(Oc3ccccc3)c2)C1(C)C (stereo not drawn) [Sumithrin, sumithrin (d-phenothrin), reference compound]
mortality at 700 pg (Aedes aegypti, topical, 24 h, read-out: % MORTALITY AFTER 24 HRS, 0.0007 μg): 27%
mortality at 300 pg [4]: 27%
mortality at 700 pg (Aedes aegypti, topical, 24 h, read-out: % MORTALITY AFTER 24 HRS, insecticide alone, 0.0007 μg, adult, virgin, female Aedes aegypti): 43%
mortality at 700 pg (Aedes aegypti, topical, 24 h, read-out: % MORTALITY AFTER 24 HRS, single active, 0.0007 μg): 27%

CC1=CCC(=C(C)C)CC1 [Terpinolene, terpinolene]
mortality at 3 % [3]: 20%

CN1COCN(Cc2cnc(Cl)s2)/C1=N\[N+](=O)[O-] [Thiamethoxam, thiamethoxam, reference compound]
mortality at 2.5 ng (Aedes aegypti, topical, 24 h, read-out: % MORTALITY AFTER 24 HRS, 0.0025 μg): 3%
mortality at 7.5 ng (Aedes aegypti, topical, 24 h, read-out: % MORTALITY AFTER 24 HRS, single active, 0.0075 μg): 23%
mortality at 10 ng [2]: 7%

CC[S+]([O-])c1c(C#N)nn(-c2c(Cl)cc(C(F)(F)F)cc2Cl)c1N (centres unmarked) [ethiprole, reference compound]
1 hour knockdown (0.0005 μg/mosquito): 0%
mortality at 0.0005 µg/mosquito (Aedes aegypti, topical, 24 h): 97%
